Measurements as given in the supplement of paper PMC10307832.

What was measured:
Assay in all cases: relative viability (nuclei count vs DMSO), 5 days (fraction); higher = more cells survive
NCI-H1437 = tested on: NCI-H1437
Procedure, shortened: (§1)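 Relative viability divides the nuclei count in treated wells by that in vehicle wells. Lung cancer cell lines were seeded in 1536-well plates, dosed by pin tool the next day, and fixed and stained after 5 days in one step with final 0.05% Triton X-100, 1% formaldehyde and 1 ug/ml Hoechst. Dosing was a single drug or a fixed anchor-drug dose plus five library-drug doses (not always all listed) in √10 steps, and values are medians of duplicate plates imaged at 4×.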

EPLC-272H = tested on: EPLC-272H
Procedure, shortened: as §1

NCI-H1650 = tested on: NCI-H1650
Procedure, shortened: as §1

NCI-H1395 = tested on: NCI-H1395
Procedure, shortened: as §1

ChaGo-K-1 = tested on: ChaGo-K-1
Procedure, shortened: as §1

PC-14 = tested on: PC-14
Procedure, shortened: as §1

HCC-78 = tested on: HCC-78
Procedure, shortened: as §1

NCI-H2085 = tested on: NCI-H2085
Procedure, shortened: as §1

NCI-H3122 = tested on: NCI-H3122
Procedure, shortened: as §1

NCI-H2126 = tested on: NCI-H2126
Procedure, shortened: as §1

NCI-H1944 = tested on: NCI-H1944
Procedure, shortened: as §1

NCI-H661 = tested on: NCI-H661
Procedure, shortened: as §1

## Cc1cn(-c2cc(NC(=O)c3ccc(C)c(Nc4nccc(-c5cccnc5)n4)c3)cc(C(F)(F)F)c2)cn1 [Nilotinib] + Cc1nc(Nc2ncc(C(=O)Nc3c(C)cccc3Cl)s2)cc(N2CCN(CCO)CC2)n1 [Dasatinib] (partner 0.075 µM)
NCI-H1437; first compound 0.01 µM
  relative viability: 0.373
NCI-H1437; first compound 0.03162 µM
  relative viability: 0.296
NCI-H1437; first compound 0.1 µM
  relative viability: 0.164
EPLC-272H; first compound 0.001 µM
  relative viability: 0.303
EPLC-272H; first compound 0.003162 µM
  relative viability: 0.343
EPLC-272H; first compound 0.01 µM
  relative viability: 0.364
EPLC-272H; first compound 0.03162 µM
  relative viability: 0.226
EPLC-272H; first compound 0.1 µM
  relative viability: 0.107
NCI-H1650; first compound 0.001 µM
  relative viability: 0.335
NCI-H1650; first compound 0.003162 µM
  relative viability: 0.32
NCI-H1650; first compound 0.01 µM
  relative viability: 0.265
NCI-H1650; first compound 0.03162 µM
  relative viability: 0.321
NCI-H1650; first compound 0.1 µM
  relative viability: 0.21
NCI-H1395; first compound 0.001 µM
  relative viability: 0.445
NCI-H1395; first compound 0.003162 µM
  relative viability: 0.357
NCI-H1395; first compound 0.01 µM
  relative viability: 0.428
NCI-H1395; first compound 0.03162 µM
  relative viability: 0.357
NCI-H1395; first compound 0.1 µM
  relative viability: 0.333
ChaGo-K-1; first compound 0.001 µM
  relative viability: 0.521
ChaGo-K-1; first compound 0.003162 µM
  relative viability: 0.598
ChaGo-K-1; first compound 0.01 µM
  relative viability: 0.634
ChaGo-K-1; first compound 0.03162 µM
  relative viability: 0.372
ChaGo-K-1; first compound 0.1 µM
  relative viability: 0.331
PC-14; first compound 0.001 µM
  relative viability: 0.226
PC-14; first compound 0.003162 µM
  relative viability: 0.254
PC-14; first compound 0.01 µM
  relative viability: 0.198
PC-14; first compound 0.03162 µM
  relative viability: 0.16
PC-14; first compound 0.1 µM
  relative viability: 0.0622
HCC-78; first compound 0.001 µM
  relative viability: 0.442
HCC-78; first compound 0.003162 µM
  relative viability: 0.357
HCC-78; first compound 0.01 µM
  relative viability: 0.404
HCC-78; first compound 0.03162 µM
  relative viability: 0.252
HCC-78; first compound 0.1 µM
  relative viability: 0.268
NCI-H2085; first compound 0.001 µM
  relative viability: 0.28
NCI-H2085; first compound 0.003162 µM
  relative viability: 0.198
NCI-H2085; first compound 0.01 µM
  relative viability: 0.179
NCI-H2085; first compound 0.03162 µM
  relative viability: 0.231
NCI-H2085; first compound 0.1 µM
  relative viability: 0.248
NCI-H3122; first compound 0.001 µM
  relative viability: 0.719
NCI-H3122; first compound 0.003162 µM
  relative viability: 0.91
NCI-H3122; first compound 0.01 µM
  relative viability: 0.982
NCI-H3122; first compound 0.03162 µM
  relative viability: 0.267
NCI-H3122; first compound 0.1 µM
  relative viability: 0.129
NCI-H2126; first compound 0.001 µM
  relative viability: 0.534
NCI-H2126; first compound 0.003162 µM
  relative viability: 0.522
NCI-H2126; first compound 0.01 µM
  relative viability: 0.513
NCI-H2126; first compound 0.03162 µM
  relative viability: 0.5
NCI-H2126; first compound 0.1 µM
  relative viability: 0.459
NCI-H1944; first compound 0.001 µM
  relative viability: 0.228
NCI-H1944; first compound 0.003162 µM
  relative viability: 0.206
NCI-H1944; first compound 0.01 µM
  relative viability: 0.217
NCI-H1944; first compound 0.03162 µM
  relative viability: 0.241
NCI-H661; first compound 0.001 µM
  relative viability: 0.923
NCI-H661; first compound 0.003162 µM
  relative viability: 0.956
NCI-H661; first compound 0.01 µM
  relative viability: 0.921
NCI-H661; first compound 0.03162 µM
  relative viability: 0.635
NCI-H661; first compound 0.1 µM
  relative viability: 0.613
